From US20220362279A1, “USE OF OLIGONUCLEOTIDES FOR THE TREATMENT AND PREVENTION OF PAIN” (CONSEJO NACIONAL DE INVESTIGACIONES CIENTÍFICAS Y TÉCNICAS, priority 2018, published 2022)
Strand notation (5' to 3'): a small letter for the sugar, then the base; units joined by * are phosphorothioate-linked, units joined directly phosphodiester-linked; [ ] holds rarer units or linkages, { } end groups; capitals alone tell only the bases. d = 2'-deoxy (DNA)

How the values were obtained:
[1] = system: rats with SNI; assay: Cold allodynia in rats with spared nerve injury (SNI); format: in vivo, rat; details: single dose of 6 mg/kg seven days after SNI, s.c.
From the text: In twenty-six rats anesthetized with Isoflurane (5% induction, 2.5% maintenance, 0.8 L/min O2 flow rate; Piramal Healthcare, UK), the right sciatic nerve and its three distal branches were exposed by blunt dissection, and the tibial and common peronneal branches completely sectioned and ligated to prevent regeneration. The third branch, the sural nerve, was left intact. The animals received one single injection of ketoprofen for post-surgical pain control and were left to recover from anesthesia in a warm and quiet environment before relocating them in their corresponding cages.
Rats were administered subcutaneously using the LT protocol (FIG. 4A) and a single dose of 6 mg/kg of IMT504. This was followed by pain-like behavior testing for up to six weeks after SNI.
Naïve (uninjured and untreated; n=16), CFA injured untreated (n=10), and vehicle-treated CFA (n=9) or SNI rats (n=10) were used as controls. Eight naïve rats remained untreated, four were vehicle-treated, and four received a daily dose of 20 mg/kg IMT504 for five consecutive days. Untreated CFA rats received an intradermal hind paw injection of CFA and no further treatment. […]
For cold allodynia assessment, the reaction to the application of a drop of acetone onto the plantar surface of the hind paw was used. Both frequency of withdrawal and cold score (pain-like behavior intensity) were measured.

[2] = system: rats with postsurgical pain (plantar incision); assay: Opioid sparing: morphine in VEH- or IMT504-pre-treated rats with plantar incision, mechanical withdrawal threshold; format: in vivo, rat
Protocol: In all experiments, the oligodeoxynucleotide (ODN) IMT504, with sequence 5′-[…]-3′ (SEQ ID No 1) was used. The HPLC-grade phosphorothioate ODN (Biosynthesis Inc., Lewisville, Tex., USA) was suspended in sterile saline solution (VEH, 0.9% NaCl; 20 mg/ml; storage concentration) and assayed for LPS contamination. Working concentration doses (6 mg/kg) were obtained by additional dissolving in sterile VEH. The ODN was administered subcutaneously, at a final volume of 200-300 μl, depending on animal weight.
Experiments addressing the opioid sparing effects of IMT504 included the subcutaneous (s.c.) injection of morphine hydrochloride trihydrate (Neocalmans, 10 mg/ml, Soubeiran Chobet, Buenos Aires, Argentina) at three different concentrations (1, 3 or 10 mg/kg, dissolved in sterile distilled water).
The rat hind paw plantar incision model of postoperative pain was used as previously described [Brennan, T. J., E. P. Vandermeulen, and G. F. Gebhart, Characterization of a rat model of incisional pain. Pain, 1996. 64(3): p. 493-501. Briefly, rats were anesthetized using isoflurane (5% induction, 2.5% maintenance, 0.8 l/min O2 flow rate; Piramal Healthcare, UK) and the plantar aspect of the right hind paw was disinfected with povidone iodine. A 1.0-cm longitudinal incision was made 0.5 cm from the end of the heel. The underlying flexor muscle was also incised longitudinally, allowing the muscle origin and insertion to remain intact. After hemostasis by gentle pressure, the skin was closed with sutures of 5-0 nylon.
Rats were divided into injured rats receiving IMT504 (6 mg/kg, dissolved in VEH) or VEH alone, 48h and 24 h prior to surgery. These groups were further subdivided into: 1) Rats followed during 3 days after the injury (n=6 per group), for assessment of pain-like behavior after the co-administration of morphine dissolved in injectable water (vehicle) at different doses, 6 and 24 h after injury; 2) Rats followed during 3 days after the injury (n=6 per group), for assessment of pain-like behavior after the co-administration of injectable water (vehicle) alone, 6 and 24 h after injury; 3) Rats followed during 21 days (n=8), for analysis of the administration of naloxone, 3 days after injury.
Mechanical withdrawal thresholds were assessed by using von Frey nylon monofilaments of different bending forces (1.4, 2, 6, 8, 10, 15 and 26 g; Stoelting Inc., Wooddale, USA) and the modified up-down method of Dixon, as described by Chaplan and cols. (Chaplan, S. R., et al., Quantitative assessment of tactile allodynia in the rat paw. J Neurosci Methods, 1994. 53(1): p. 55-63) , to establish the 50% withdrawal threshold. Results were obtained using the formula: 50% g threshold=[…], where Xf=value (in log units) of the final von Frey hair used; k=tabular value for the pattern of positive/negative responses; and […] difference (in log units) between stimuli. Mechanical withdrawal thresholds were tested 48 h before surgery (basal responses), and 6 h, 1, 3, 7, 14 and 21 days after injury.
A dose-response experiment to evaluate the effect of the s.c. administration of morphine at different doses (10, 3 and 1 mg/kg), 6 h or 1 day after injury, in VEH- or IMT504-treated rats (time-points were chosen based on the fact that a certain degree of mechanical withdrawal threshold alterations was still present in IMT504-treated rats was done, which allowed to test if within this therapeutic window, it was possible to fully revert pain-like behavior using smaller morphine doses). […]

Question: Which results are given for “IMT504: synthetic phosphorothioate oligodeoxynucleotide with sequence 5′-TCATCATTTTGTCATTTTGTCATT-3′ (SEQ ID No 1) (DNA dT*dC*dA*dT*dC*dA*dT*dT*dT*dT*dG*dT*dC*dA*dT*dT*dT*dT*dG*dT*dC*dA*dT*dT)”?
Answer: cold score [1]: reduced to basal levels ten days after injury and onwards; cold withdrawal frequency reduced to basal levels [1]: three weeks after injury; anti-allodynic effect of pre-emptive IMT504 and 3 mg/kg morphine ([2]; 6 h and 1 day after injury challenges): anti-allodynic effects directly comparable to those described for the 10 mg/kg dose in VEH rats; time post injection of morphine with withdrawal thresholds remaining significantly higher ([2]; IMT504-pre-treated rats (6 mg/kg, 48 h and 24 h before surgery), particularly at morphine 3 and 10 mg/kg): ≥ 120 min; withdrawal threshold once the effect of the opioid had worn out (240 min) ([2]; IMT504 rats receiving 10 mg/kg morphine, 1 day after injury, vs VEH counterparts): retained a significantly higher withdrawal threshold than their VEH counterparts; reduction in morphine concentration to achieve the same effect as in VEH-treated injured rats receiving the highest dose ([2]; area under the curve analyses (FIG. 16, FIG. 17)): 3 fold
